Here are results for one compound from publication PMC6874683, “Pyrrothiogatain acts as an inhibitor of GATA family proteins and inhibits Th2 cell differentiation in vitro” (Scientific Reports, 2019).

“And” between values parts separate entries of the source, which are not always exact repeats. Equal entries are not always repeated.

One assay deals with T1, GATA5 (Homo sapiens, UniProt Q9BWX5).
T1 construct: we tried to synthesize their full-length proteins using the cell-free system; made in house; host or cells: wheat cell-free protein synthesis system (WEPRO1240 kit)
T1 sequence (Q9BWX5 whole entry, species assumed): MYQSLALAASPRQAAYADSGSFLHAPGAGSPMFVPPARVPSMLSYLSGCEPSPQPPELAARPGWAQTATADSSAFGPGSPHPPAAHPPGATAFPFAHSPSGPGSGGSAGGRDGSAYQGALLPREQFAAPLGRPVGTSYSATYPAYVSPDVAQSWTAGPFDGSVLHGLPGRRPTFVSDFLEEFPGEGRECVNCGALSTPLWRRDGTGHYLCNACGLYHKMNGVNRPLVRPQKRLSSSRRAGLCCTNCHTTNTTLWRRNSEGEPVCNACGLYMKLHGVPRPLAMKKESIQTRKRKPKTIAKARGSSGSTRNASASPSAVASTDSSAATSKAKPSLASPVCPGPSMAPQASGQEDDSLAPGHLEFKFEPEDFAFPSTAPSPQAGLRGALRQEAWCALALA
The assay is described as follows: AlphaScreen DNA-binding assay, GATA5. Conditions: pyrrothiogatain 0 to 200 µM. The method, then: For the protein-DNA binding assay on a 384-well AlphaPlate (Perkin Elmer), 10 μL of bait protein mixture containing 1 µL FLAG-tagged protein in AlphaScreen Buffer (100 mM Tris-HCl (pH 8.0), 150 mM NaCl, 0.1% Tween 20, and 1 mg/mL BSA) and 5 µL biotinylated oligonucleotide (0–10 µM final concentration) in AlphaScreen Buffer were dispended into the AlphaPlate. Then, the plate was incubated at 26 °C for 1 h. After incubation, 10 μL of the detection mixture containing 0.4 µg/mL Anti-DYKDDDDK antibody (1E6, Wako), 0.1 μL streptavidin-conjugated AlphaScreen donor beads, and 0.1 μL protein A-conjugated AlphaScreen acceptor beads in AlphaScreen Buffer was mixed and incubated at 26 °C for 1 h, and then, the AlphaScreen signal was detected using an EnVision device with the AlphaScreen signal detection program (PerkinElmer).
For the AlphaScreen-based chemical library screening, we used a diverse set of 9,600 synthesized chemicals established by the Drug Discovery Initiative (The University of Tokyo, Tokyo, Japan). All chemical compounds (10 mM) were dissolved in DMSO, and were pre-dispensed into a 384-well Alphaplate (250 nL/well). […] The AlphaScreen signal was detected using an EnVision device with the AlphaScreen signal detection program (PerkinElmer). […]

A further assay deals with T2, RelA (Homo sapiens, UniProt Q04206).
T2 construct: FLAG; made in house; host or cells: wheat cell-free protein synthesis system (inferred from the general methods)
T2 sequence (Q04206 whole entry, species assumed): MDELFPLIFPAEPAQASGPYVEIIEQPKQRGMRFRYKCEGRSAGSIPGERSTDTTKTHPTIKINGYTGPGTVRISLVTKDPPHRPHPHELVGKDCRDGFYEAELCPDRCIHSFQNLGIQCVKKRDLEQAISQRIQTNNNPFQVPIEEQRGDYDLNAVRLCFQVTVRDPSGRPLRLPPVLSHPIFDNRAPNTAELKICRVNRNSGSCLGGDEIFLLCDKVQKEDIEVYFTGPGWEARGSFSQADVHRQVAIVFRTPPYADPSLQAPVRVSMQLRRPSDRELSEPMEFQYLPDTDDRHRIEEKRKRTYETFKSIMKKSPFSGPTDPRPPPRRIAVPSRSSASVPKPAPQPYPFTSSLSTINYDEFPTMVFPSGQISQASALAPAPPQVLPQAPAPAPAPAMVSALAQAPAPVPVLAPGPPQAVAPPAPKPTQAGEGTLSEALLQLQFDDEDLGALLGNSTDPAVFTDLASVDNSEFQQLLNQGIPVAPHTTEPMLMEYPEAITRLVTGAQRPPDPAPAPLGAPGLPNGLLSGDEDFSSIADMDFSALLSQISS
The assay is described as follows: AlphaScreen binding assay of RelA and its target DNA (control). Conditions: second screen, 0 to 10 µM. An excerpt: Figure 2 Identification of a GATA3 inhibitor using the wheat cell-free drug screening system. (A) A flow chart of the high-throughput screening to identify the 3-(2,5-dimethyl-1H-pyrrol-1-yl)thiophene-2-carboxylic acid that inhibits the DNA-binding activity of GATA3. The 3-(2,5-dimethyl-1H-pyrrol-1-yl)thiophene-2-carboxylic acid was named pyrrothiogatain (pyrrole and thiofuran containing GATA3 inhibitor). (B) The results of the first screen using 9,600 compounds. In the assay, each chemical compound was used at a final concentration of 10 µM. (C) The results of the second screening that show the inhibition rate of pyrrothiogatain. The inhibition assay of GATA3 DNA-binding activity was performed in the presence of various concentrations of pyrrothiogatain (0 to 10 µM). Biotinylated FLAG-peptide was used as a control to measure the interference of compounds in the AlphaScreen assay. In addition, a binding assay of RelA and its target DNA was used as control for GATA3. (D) Electrophoretic mobility shift assay (EMSA) of GATA3 with its consensus motif containing oligonucleotide in the presence of various concentrations of pyrrothiogatain (0 to 100 µM). GATA3 consensus oligonucleotide labelled with ^32P was detected by autoradiography. […] In (B,D,E), all data are expressed as individual points of three independent experiments with error bars indicating standard deviation. […]

For `Cc1ccc(C)n1-c1ccsc1C(=O)O` [Pyrrothiogatain, 3-(2,5-dimethyl-1H-pyrrol-1-yl)thiophene-2-carboxylic acid], at GATA5, the 50% inhibitory concentration (IC50) is ~50 µM and 49.5 µM. Further, the “Interference with the RelA-DNA interaction” value on RelA is listed as “without interfering”.
